# Measurements reported in patent publication US6896883B2 (priority 1997, dated 2005).
# System: F. graminearum
# Assay type: in vivo
# Conditions: wheat seeds in F. graminearum-infested soil, 7 days after planting
compound,measurement,value
"c1ccc2[nH]c(-c3cscn3)nc2c1 [Thiabendazole, thiabendazole]",% Germination,80 a %
